# Target: T1, endothelial lipase (EL) (Homo sapiens, UniProt Q9Y5X9)
# T1 construct: made in house; host or cells: recombinant cell lines (CHO, HEK293); concentrated conditioned medium used as enzyme solution
# T1 sequence (Q9Y5X9 21-500): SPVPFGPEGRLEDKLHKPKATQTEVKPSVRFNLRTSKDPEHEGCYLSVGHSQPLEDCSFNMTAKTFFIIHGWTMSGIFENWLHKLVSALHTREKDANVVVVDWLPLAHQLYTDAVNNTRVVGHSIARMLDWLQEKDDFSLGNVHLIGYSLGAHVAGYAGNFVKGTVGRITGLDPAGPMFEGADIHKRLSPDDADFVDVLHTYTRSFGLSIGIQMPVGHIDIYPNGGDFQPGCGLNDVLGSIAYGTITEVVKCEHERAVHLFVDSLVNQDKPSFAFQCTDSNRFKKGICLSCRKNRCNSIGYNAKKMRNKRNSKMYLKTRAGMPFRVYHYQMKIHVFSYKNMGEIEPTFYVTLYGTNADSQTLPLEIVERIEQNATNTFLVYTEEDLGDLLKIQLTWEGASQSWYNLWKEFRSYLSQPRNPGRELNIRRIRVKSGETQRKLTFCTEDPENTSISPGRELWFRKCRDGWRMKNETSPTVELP
# Assay: Further EL inhibition assay
# Assay type: biochemical
# Details: Bodipy-labelled phospholipid substrate, 37° C., 90 minutes, HPTLC fluorescence readout; EL from conditioned medium of recombinant cell lines (CHO, HEK293)
# Text: EL is released as secretory protein in high concentration into cell culture medium (conditioned medium) by recombinant cell lines (CHO, HEK293). This is employed as enzyme solution after concentration.
# The enzymatic activity is reduced as a function of the inhibitor concentration used, and the inhibitor concentration at which a half-maximum enzymatic activity is observed is called IC50.
# The phospholipase-specific substrate 1,2-bis(4,4-difluoro-5,7-dimethyl-4-bora-3a,4a-diaza-s-indacene-3-undecanoyl)-sn-glycero-3-phosphocholine, (manufacturer Molecular Probes) is used to characterize the enzymatic activity of endothelial lipase and the effect of inhibitors. Hydrolysis of the A1 ester linkage of this phospholipid by the enzyme liberates the fluorescent dye Bodipy which can be detected after separation by thin-layer chromatography on an HPTLC plate (silica gel 60, Merck) or directly in the reaction vessel by measuring the fluorescence. The substrate solution is prepared by dissolving 100 μg of 1,2-bis(4,4-difluoro-5,7-dimethyl-4-bora-3a,4a-diaza-s-indacene-3-undecanoyl)-sn-glycero-3-phospho-choline (manufacturer Molecular Probes) in 100 μl of DMSO and taking up in 2.4 mg of tripalmitin (Sigma) in 393 μl of chloroform which comprises 20 mg/ml DOP-choline (1,2-dioleoyl-sn-glycero-3-phosphocholine). 39.3 μl of this lipid mixture are transferred into a fresh reaction vessel, and the solvent is evaporated off. The lipid mixture is dissolved in 4 ml of 200 mM TRIS-HCl, 150 mM sodium chloride, pH=7.4, by sonication twice. The subsequent enzymic reaction takes place at 37° C. for 90 minutes. For this purpose, 20 μl of the substrate solution are incubated with 2 μl of inhibitor of appropriate concentration (dissolved in 10% DMSO, using 10% strength DMSO solution for control) and 2 μl of enzyme solution (conditioned medium). The 4 μl of the assay mixture are loaded onto an HPTLC plate (silica gel 60, Merck), and the liberated fluorescent dye is separated for detection with an eluent (diethyl ether:petroleum benzine:acetic acid [78:22:1]). After evaporation of the eluent, the plate is read in a fluorescence scanner. An increased liberation of the fluorescent dye in the uninhibited reaction is to be observed as a measure of the enzymic activity.
row,IC50,SMILES
1,0.23 µM,O=C(N[C@H]1CCc2ccccc21)n1c(=O)oc2cccnc21 [Example 15]
2,0.18 µM,O=C(N[C@@H]1CCc2ccccc21)n1c(=O)oc2cccnc21 [Example 14]
3,0.39 µM,"Cc1cccc(CNC(=O)n2c(=O)oc3cccnc32)c1 [Example 4, 2-Oxo-oxazolo[4,5-b]pyridine-3-(3-methylbenzyl)carboxamide]"
4,0.061 µM,"Cc1ccc2oc(=O)n(C(=O)NCc3ccccc3C)c2n1 [Example 17, 5-Methyl-2-oxo-oxazolo[4,5-b]pyridine-3-(2-methylbenzyl)carboxamide]"
5,0.01 µM,"Cc1ccccc1CNC(=O)n1c(=O)oc2cc(Br)cnc21 [Example 2, 6-Bromo-2-oxo-oxazolo[4,5-b]pyridine-3-(2-methylbenzyl)carboxamide]"
6,0.01 µM,"Cc1ccc(CNC(=O)n2c(=O)oc3cccnc32)cc1C [Example 5, 2-Oxo-oxazolo[4,5-b]pyridine-3-(3,4-dimethylbenzyl)carboxamide]"
7,0.05 µM,"Cc1ccccc1CNC(=O)n1c(=O)oc2cccnc21 [Example 1, 2-Oxo-oxazolo[4,5-b]pyridin-3-(2-methylbenzyl)carboxamide]"

# Second part, the molecule before the results:
row,SMILES,IC50
1,"O=C(NC1CCCc2ccccc21)n1c(=O)oc2cccnc21 (stereo not drawn) [Example 13, 2-Oxo-oxazolo[4,5-b]pyridin-3-(1,2,3,4-tetrahydronaphthalen-1-yl)carboxamide]",0.0005 µM
2,"CCCCCCCNC(=O)n1c(=O)oc2cccnc21 [Example 9, 2-Oxo-oxazolo[4,5-b]pyridine-3-heptylcarboxamide]",0.011 µM
3,"CCCCCCCCNC(=O)n1c(=O)oc2cccnc21 [Example 19, 2-Oxo-oxazolo[4,5-b]pyridine-3-octylcarboxamide]",0.083 µM
4,"CCCCCCCCCNC(=O)n1c(=O)oc2cccnc21 [Example 20, 2-Oxo-oxazolo[4,5-b]pyridine-3-nonylcarboxamide]",0.09 µM
5,"O=C(NCC1CCCCC1)n1c(=O)oc2cccnc21 [Example 18, 2-Oxo-oxazolo[4,5-b]pyridine-3-cyclohexylmethylcarboxamide]",0.48 µM
6,"CCCCNC(=O)n1c(=O)oc2cccnc21 [Example 11, 2-Oxo-oxazolo[4,5-b]pyridine-3-butylcarboxamide]",0.354 µM
7,"CCCCCCNC(=O)n1c(=O)oc2cccnc21 [Example 3, 2-Oxo-oxazolo[4,5-b]pyridine-3-hexylcarboxamide]",0.069 µM
8,"CCCCCCCCCCCCNC(=O)n1c(=O)oc2cccnc21 [Example 16, 2-Oxo-oxazolo[4,5-b]pyridin-3-dodecylcarboxamide]",0.18 µM

# — patent publication US7846943B2, “Azolopyridin-2-one derivatives as lipase and phospholipase inhibitors” (Sanofi-Aventis, priority 2005, dated 2010)
